Results from patent publication US10696615B2, “Prenylated hydroxystilbenes” (The University of Sydney, priority 2011, dated 2020).
Values after ≈ are worked out from the molar mass of the structure shown. Read-outs that look alike come from different tables or passages of the source.

How the values were obtained:
[1] = background statement; cited from earlier work
MRSA = assay: MIC screening, broth microdilution (CLSI)
Method: The MICs were determined by the broth microdilution method according to the Clinical and Laboratory Standards Institute (CLSI) guidelines. The MIC screening was performed on 96-well plates containing the compounds in serial 2-fold dilutions from 64 to 0.06 μg/ml. The bacterial inoculations were prepared in cation-adjusted Mueller Hinton medium broth from cultures grown on appropriate agar plates which are prepared freshly every week. The growth controls and sterile controls were included in each assay plates. The assay plates were incubated in an ambient-air incubator at 35±2° C. for 16-20 hr (24 hr for MRSA), and bacterial growth was observed and recorded.
(§1) A. Revive bacterial strains from storage frozen (−80° C.) two days before the MIC screening. Streak onto surface of appropriate agar plates, and incubate the plates for 20-24 hr at 35±2° C. in an appropriate atmosphere.
(§2) B. Select 5-10 well-isolated colonies of similar morphology and restreak onto fresh agar plates using sterile loops. Incubate the plates for 20-24 hr at 35±2° C. in an appropriate atmosphere as above.
(§3) Compound stock solutions were prepared in 100% DMSO on the day of MIC screening and use immediately. Compound stock concentration=[(highest testing concentration)×103 μl/3 μl] (e.g. if the required highest testing concentration is 64 μg/ml in assay plates, stock concentration=64×103/3=2.2 mg/ml). The potency of testing compound is assumed as 100% unless otherwise stated whereas the potency of reference compound is calculated according to manufacturer's analysis data.
(§4) Eleven two-fold dilutions per compound were made then transferred 3 μl to each well of test plate. Final concentration of DMSO in the MIC screening is ˜3%.
(§5) B. Transfer colonies from fresh culture plates into 5 ml of saline with sterile loops and mix well. Measure and adjust turbidity to 0.5 McFarland barium sulphate standard using a turbidity meter. Alternatively, transfer 1-2 colonies into 500 μl of saline and adjust OD625 to ˜0.1 using a plate reader. […] Dilute bacterial inoculum 1:280 for Gram-positive and fastidious strains and 1:400 for Gram-negative strains into corresponding medium broth (CAMHB, CAMHB+3% lysed horse blood, HTM) (e.g. 35.6 μl of inoculum into 10 ml of CAMHB or 25 μl of inoculum into 10 ml of CAMHB). H. influenzae: HTM Streptococci: CAMHB+3% lysed horse blood Other strains in the panel: CAMHB 2.4. Prepare Assay Plates A. Add 100 μl of the bacterial inoculum to each well of the compound plates except wells B12, D12, F12 and H12. B. Add 100 μl of medium broth to wells B12, D12, F12 and H12 of the compound plates. […] Stack four plates together and cover with a sterile plate lid. Incubate in an ambient-air incubator at 35±2° C. for 16-20 hours (24 hours for MRSA). […] Perform Colony Counts A. Dilute the bacterial inoculum (0.5 McFarland) to a serial of 10-1 to 10-7 in saline solution (e.g. 100 μl bacterial inoculum+900 μl of saline). B. Spread 100 μl of each dilution (10-4, 10-5, 10-6, and 10-7) onto CAMHA plates in triplication, let the liquid soak into the agar for 10 minutes, invert the agar plates and incubate for 24 hr at 35±2° C. […] Record MICs and Calculate CFUs A. Open the compound plate layout in the compound management system, and check the assay plate barcode. B. Place the assay plate on the top of MIC reader, and adjust the magnification mirror to read each wells, record growth status as raw data. (Optional) Record photo image of each assay plates using high-speed high-resolution scanner. […] Determine MIC break points according to CLSI guideline. D. Count colonies and calculate CFU of bacterial inoculum.

Streptococci = assay: MIC screening, broth microdilution (CLSI)
Method: (§6) The minimum inhibition concentration (MIC) screening was performed with 14 bacterial strains and 4 compounds. The MICs were determined by the broth microdilution method according to the Clinical and Laboratory Standards Institute (CLSI) guidelines. The MIC screening was performed on 96-well plates containing the compounds in serial 2-fold dilutions from 64 to 0.06 μg/ml. The bacterial inoculations were prepared in cation-adjusted Mueller Hinton medium broth from cultures grown on appropriate agar plates which are prepared freshly every week. The growth controls and sterile controls were included in each assay plates. The assay plates were incubated in an ambient-air incubator at 35±2° C. for 16-20 hr (24 hr for MRSA), and bacterial growth was observed and recorded.
as §1
Streptococci: TSA II, 5% CO2
as §2, §3, §4, §5

Enterococci = assay: MIC screening, broth microdilution (CLSI)
Method: as §6, §1
Enterococci: TSA II, ambient air
as §2, §3, §4
B. Transfer colonies from fresh culture plates into 5 ml of saline with sterile loops and mix well. Measure and adjust turbidity to 0.5 McFarland barium sulphate standard using a turbidity meter. Alternatively, transfer 1-2 colonies into 500 μl of saline and adjust OD625 to ˜0.1 using a plate reader. C. Dilute bacterial inoculum 1:280 for Gram-positive and fastidious strains and 1:400 for Gram-negative strains into corresponding medium broth (CAMHB, CAMHB+3% lysed horse blood, HTM) (e.g. 35.6 μl of inoculum into 10 ml of CAMHB or 25 μl of inoculum into 10 ml of CAMHB). H. influenzae: HTM Streptococci: CAMHB+3% lysed horse blood Other strains in the panel: CAMHB 2.4. Prepare Assay Plates A. Add 100 μl of the bacterial inoculum to each well of the compound plates except wells B12, D12, F12 and H12. B. Add 100 μl of medium broth to wells B12, D12, F12 and H12 of the compound plates. C. Stack four plates together and cover with a sterile plate lid. Incubate in an ambient-air incubator at 35±2° C. for 16-20 hours (24 hours for MRSA). […] Perform Colony Counts A. Dilute the bacterial inoculum (0.5 McFarland) to a serial of 10-1 to 10-7 in saline solution (e.g. 100 μl bacterial inoculum+900 μl of saline). B. Spread 100 μl of each dilution (10-4, 10-5, 10-6, and 10-7) onto CAMHA plates in triplication, let the liquid soak into the agar for 10 minutes, invert the agar plates and incubate for 24 hr at 35±2° C. […] Record MICs and Calculate CFUs A. Open the compound plate layout in the compound management system, and check the assay plate barcode. B. Place the assay plate on the top of MIC reader, and adjust the magnification mirror to read each wells, record growth status as raw data. (Optional) Record photo image of each assay plates using high-speed high-resolution scanner. C. Determine MIC break points according to CLSI guideline. D. Count colonies and calculate CFU of bacterial inoculum.

Haemophilus influenzae = assay: MIC screening, broth microdilution (CLSI)
Method: as §6, §1
Haemophilus influenzae: chocolate agar, 5% CO2
as §2, §3, §4, §5

[2] = test system: Acinetobacter calcoaceticus; assay: MIC screening, broth microdilution (CLSI)
Method: as §6, §3, §4, §5

Escherichia coli = assay: MIC screening, broth microdilution (CLSI)
Method: as §6, §3, §4, §5

Klebsiella pneumoniae = assay: MIC screening, broth microdilution (CLSI)
Method: as §6, §3, §4, §5

Pseudomonas aeruginosa = assay: MIC screening, broth microdilution (CLSI)
Method: as §6, §3, §4, §5

Staphylococcus aureus = assay: MIC screening, broth microdilution (CLSI)
Method: as §6, §3, §4, §5

Which oral bioavailability [1] does the source give for `Oc1ccc(/C=C/c2cc(O)cc(O)c2)cc1` [Resveratrol] here?
The oral bioavailability was “very poor oral bioavailability”.

Which results are given for `C[C@H]1COc2c(N3CCN(C)CC3)c(F)cc3c(=O)c(C(=O)O)cn1c23` [Levofloxacin, reference compound]?
MIC (MRSA; Staphylococcus aureus (ATCC 43300), Exp 2): 0.25 µg/mL (≈ 0.692 µM); MIC (MRSA; Staphylococcus aureus (MRSA, Erythromycin & clindamycin-resistant), Exp 2): 8 µg/mL (≈ 22.1 µM); MIC (MRSA; Staphylococcus aureus, ATCC43300 / MRSA): 0.25 µg/mL (≈ 0.692 µM); MIC (MRSA; Staphylococcus aureus, MRSA): 8 µg/mL (≈ 22.1 µM); MIC (Streptococci; Streptococcus pneumoniae, ATCC49619, Streptococcus pneumoniae (ATCC 49619), Exp 1): 0.5 µg/mL (≈ 1.38 µM); MIC (Streptococci; Streptococcus pneumoniae, ATCC49619, Streptococcus pneumoniae (ATCC 49619), Exp 2): 0.5 µg/mL (≈ 1.38 µM); MIC (Streptococci; Streptococcus pneumoniae, Streptococcus pneumoniae (Erythromycin-resistant), Exp 1): 1 µg/mL (≈ 2.77 µM); MIC (Streptococci; Streptococcus pneumoniae, Streptococcus pneumoniae (Erythromycin-resistant), Exp 2): 1 µg/mL (≈ 2.77 µM); MIC (Streptococci; Streptococcus pyogenes, ATCC700942, Streptococcus pyogenes (ATCC 700942), Exp 1): 0.5 µg/mL (≈ 1.38 µM); MIC (Streptococci; Streptococcus pyogenes, ATCC700942, Streptococcus pyogenes (ATCC 700942), Exp 2): 0.5 µg/mL (≈ 1.38 µM); MIC (Enterococci; Enterococcus faecalis, ATCC29212, Enterococcus faecalis (ATCC 29212), Exp 1): 1 µg/mL (≈ 2.77 µM); MIC (Enterococci; Enterococcus faecalis, ATCC29212, Enterococcus faecalis (ATCC 29212), Exp 2): 1 µg/mL (≈ 2.77 µM); MIC (Enterococci; Enterococcus faecium, ATCC700221, Enterococcus faecium (ATCC 700221), Exp 1): > 64 µg/mL; MIC (Enterococci; Enterococcus faecium, ATCC700221, Enterococcus faecium (ATCC 700221), Exp 2): > 64 µg/mL; MIC (Haemophilus influenzae): < 0.0625 µg/mL; MIC (Haemophilus influenzae; Exp 2): <0.0625 µg/mL; MIC [2]: 4 µg/mL (≈ 11.1 µM); MIC ([2]; Exp 2): 4 µg/mL (≈ 11.1 µM); MIC (Escherichia coli; Exp 1): < 0.0625 µg/mL; MIC (Escherichia coli; Exp 2): < 0.0625 µg/mL; MIC (Klebsiella pneumoniae): 1 µg/mL (≈ 2.77 µM); MIC (Klebsiella pneumoniae; Exp 2): 1 µg/mL (≈ 2.77 µM); MIC (Pseudomonas aeruginosa): 1 µg/mL (≈ 2.77 µM); MIC (Pseudomonas aeruginosa; Exp 2): 1 µg/mL (≈ 2.77 µM); MIC (Staphylococcus aureus; ATCC29213, Staphylococcus aureus (ATCC 29213), Exp 1): 0.5 µg/mL (≈ 1.38 µM); MIC (Staphylococcus aureus; ATCC29213, Staphylococcus aureus (ATCC 29213), Exp 2): 0.25 µg/mL (≈ 0.692 µM); MIC (Staphylococcus aureus; Staphylococcus aureus (Levofloxacin-resistant), Exp 1): 64 µg/mL (≈ 177 µM); MIC (Staphylococcus aureus; Staphylococcus aureus (Levofloxacin-resistant), Exp 2): 64 µg/mL (≈ 177 µM)
